Values quoted from earlier work, collected in patent US20070122350A1, “Safe and effective methods of administering therapeutic agents” (Transave, Inc., priority 2005, published 2007).

Settings: OSHA

**Q.** For N.N.[Cl][Pt][Cl] [cisplatin, Cis-diamminedichloroplatinum(II)], which “legal airborne permissible exposure limit (PEL)” value (averaged over an eight-hour work shift) is on record?
**A.** Its value is 2·10^−3 mg/m^3.

**Q.** What about the “legal airborne permissible exposure limit (PEL), equivalent” value (per liter of air during 480 consecutive minutes) of the same molecule?
**A.** Its value is 2 ng/L.
